Experimental data from publication PMC11547804, “Synthesis and Evaluation of Phenyltriazole-Deoxynojirimycin Hybrids as Potent α-Glucosidase Inhibitors” (Molecules, 2024).
Entries after “also recorded” stand apart in the source; their conditions may differ. Like-named read-outs stand apart in the source and are kept apart here.

Experiments:
[1] = biological target: T1, α-glucosidase (yeast) (Saccharomyces cerevisiae, UniProt P53341); experiment: α-glucosidase (yeast) inhibition assay, p-nitrophenyl glycopyranoside substrate; format: biochemical; details: 50 mM phosphate buffer pH 6.8, 37 °C; mean ± SD, three independent experiments
T1 construct: purchased Sigma Chemical Co., St. Louis, MO, USA
T1 sequence (P53341 whole entry): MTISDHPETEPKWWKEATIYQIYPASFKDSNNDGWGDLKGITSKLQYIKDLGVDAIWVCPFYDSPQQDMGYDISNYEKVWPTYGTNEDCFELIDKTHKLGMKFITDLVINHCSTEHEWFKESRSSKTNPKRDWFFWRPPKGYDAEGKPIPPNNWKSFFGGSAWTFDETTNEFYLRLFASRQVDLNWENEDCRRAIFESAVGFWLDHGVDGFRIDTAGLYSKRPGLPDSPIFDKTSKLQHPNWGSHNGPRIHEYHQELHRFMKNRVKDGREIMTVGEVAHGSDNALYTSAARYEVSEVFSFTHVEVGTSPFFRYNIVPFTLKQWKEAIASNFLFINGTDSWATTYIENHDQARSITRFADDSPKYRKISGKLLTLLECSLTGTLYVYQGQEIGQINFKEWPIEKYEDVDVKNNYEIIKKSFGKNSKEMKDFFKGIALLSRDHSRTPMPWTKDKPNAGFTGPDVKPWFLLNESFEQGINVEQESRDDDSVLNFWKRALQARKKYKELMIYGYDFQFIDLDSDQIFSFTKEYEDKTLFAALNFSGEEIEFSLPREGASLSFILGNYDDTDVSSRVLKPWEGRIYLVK
Method: (§1) Compounds 10–20 (except 15 for solubility reasons) were evaluated by in vitro α-glucosidase (yeast), β-glucosidase (almonds) inhibition studies.
(§2) Two glycosidases, α-glucosidase (yeast) and β-glucosidase (almonds), and their corresponding substrates, p-nitrophenyl glycopyranosides, were purchased from Sigma Chemical Co., St. Louis, MO, USA. Other commercial reagents and solvents were used as received. Reactions were monitored by Thin Layer Chromatography (TLC) analyses using silica gel GF254 plates bearing a 0.25 mm layer. Visualization of compounds was detected by short-wave UV fluorescence (λ = 254 nm) and/or by dipping into 5% phosphomolybdic acid in EtOH. Column chromatography was carried out by silica gel (200–300 mesh). NMR spectra (^1H and ^13C) were recorded with Bruker AV III 500 MHz spectrometer using CDCl3 (22–33), D2O (10–13, 16–20) or CD3OD (14, 15) as solvents. High-resolution mass spectra (HRMS) were obtained by direct injection on a mass spectrometer (Thermo Scientific LTQ Orbitrap XL, Waltham, MA, USA) equipped with an electrospray ion source in positive mode (see Supplementary Materials).
(§3) The α-glucosidase and β-glucosidase assays were performed in 50 mM phosphate buffer (pH 6.8) at 37 °C. The inhibitors were pre-incubated with the enzyme solutions at 37 °C for 15 min, and then the corresponding substrates were added. After the enzymatic reaction was incubated at 37 °C for 15 min., it was quenched by adding Na2CO3. Absorbance readings were taken on a BioTek µQuant Microplate Spectrophotometer at 405 nm. Experiments were performed in triplicate. The IC50 values were determined graphically using GraphPad Prism (version 8.0).

[2] = biological target: T2, yeast α-glucosidase (Saccharomyces cerevisiae, UniProt P53341); experiment: Kinetics of enzyme inhibition (Lineweaver–Burk plots); format: biochemical; details: for mode of inhibition: Lineweaver–Burk plot, same Vmax; for Ki: substrate para-nitrophenyl α-D-glucopyranoside, pH 6.8, 37 °C, read-out: inhibition constant (Ki)
T2 construct: purchased Sigma Chemical Co., St. Louis, MO, USA
T2 sequence (P53341 whole entry): as above
Method: In order to gain further insight into how these hybrids interact with α-glucosidase, the mode of inhibition for compounds 18 and 19 as representative examples was analyzed using the Lineweaver–Burk plot (Figure 2).
The inhibition types of the selected compounds were determined from Lineweavere–Burk plots. […] The enzyme reaction was performed according to the conditions described above.
Figure 2 Double-reciprocal plots of the inhibition kinetics of yeast α-glucosidase by compounds 18 (a), 19 (b).

[3] = biological target: β-glucosidase (almonds); experiment: β-glucosidase (almonds) inhibition assay, p-nitrophenyl glycopyranoside substrate; format: biochemical; details: 50 mM phosphate buffer pH 6.8, 37 °C; mean ± SD, three independent experiments
Method: as §1, §2, §3

[4] = biological target: T1, α-glucosidase (yeast); design: method as in doi:10.1080/07328303.2020.1837150; details: data for 7–9 and DNJ included for comparative purposes; cited from earlier work
[5] = biological target: β-glucosidase (almonds); details: data for 7–9 and DNJ included for comparative purposes; cited from earlier work
[6] = Cell proliferation / viability CCK-8 assay; format: cell-based; details: human, HL60 cells; HL60, 50 µM, 24 h, CCK-8
Method: (§4) Compounds 9, 13 and 17–20 with better inhibitory activity on α-glucosidase were selected to study the effect on cell viability and proliferation by CCK-8 assay (Figure 5). […] When viability was measured at 50 µM for these compounds, the viability of compound 19 was 96.97% compared with 20.89% for compound 20. […] With the increase in compound concentration, a lot of dead cells and more cell debris were observed, and the culture medium became muddy for 20, which was not obviously observed for 9, 13 and 17–19.
(§5) HL60 cells in DMEM supplemented with 10% fetal bovine serum were seeded at a density of 5 × 10^3 cells/well in a 96-well plate and incubated at 37 °C for 24 h. The medium was substituted with fresh medium containing a range of concentrations of inhibitors in DMSO and cultured for another 24 h. CCK-8 solution (10 µL) was added to each well incubated at 37 °C for 1 h. The absorbance was read on a BioTek µQuant Microplate Spectrophotometer at 450 nm. The cell vitality curve was depicted with GraphPad Prism (version 8.0).

[7] = tested on: HL60 cells; experiment: Cell proliferation / viability CCK-8 assay; format: cell-based; details: for cell survival rate: HL60, 80 µM, 24 h, CCK-8
Method: as §4, §5

SMILES	IC50 [1] [µM]	IC50 [3] [µM]	also measured
CCCCc1ccc(-c2cn(CCCCCCN3C[C@H](O)[C@@H](O)[C@H](O)[C@H]3CO)nn2)cc1 [Compound 18, (2R,3R,4R,5S)-1-(6-(4-(4-butylphenyl)-1H-1,2,3-triazol-1-yl)hexyl)-2-(hydroxymethyl)piperidine-3,4,5-triol]	11 ± 1	69 ± 5	mode of inhibition [2]: competitive; Ki [2]: 3.8 µM
Cc1ccc(-c2cn(CCCCN3C[C@H](O)[C@@H](O)[C@H](O)[C@H]3CO)nn2)cc1 [Compound 8]			IC50 [4]: 324 ± 65 µM; IC50 [5]: > 1000 µM
CCCCCc1ccc(-c2cn(CCCCCCN3C[C@H](O)[C@@H](O)[C@H](O)[C@H]3CO)nn2)cc1 [Compound 19, (2R,3R,4R,5S)-2-(hydroxymethyl)-1-(6-(4-(4-pentylphenyl)-1H-1,2,3-triazol-1-yl)hexyl)piperidine-3,4,5-triol]	11 ± 1	73 ± 7	mode of inhibition [2]: competitive; Ki [2]: 3.7 µM; viability at 24 h, 50 µM [6]: 97%; cell survival rate [7]: 71.28%
OC[C@@H]1[C@@H](O)[C@H](O)[C@@H](O)CN1CCCCn1cc(-c2ccccc2)nn1 [Compound 7]			IC50 [4]: 551 ± 25 µM; IC50 [5]: > 1000 µM
CCCCCc1ccc(-c2cn(CCCCN3C[C@H](O)[C@@H](O)[C@H](O)[C@H]3CO)nn2)cc1 [Compound 9]			IC50 [4]: 63 ± 6 µM; IC50 [5]: 665 ± 57 µM

Second part, led by results:

IC50 [1] [µM]	IC50 [3] [µM]	SMILES	also measured
171 ± 25	739 ± 78	CCCc1ccc(-c2cn(CCCCN3C[C@H](O)[C@@H](O)[C@H](O)[C@H]3CO)nn2)cc1 [Compound 11, (2R,3R,4R,5S)-2-(hydroxymethyl)-1-(4-(4-(4-propylphenyl)-1H-1,2,3-triazol-1-yl)butyl)piperidine-3,4,5-triol]	
14 ± 1	62 ± 4	CCCc1ccc(-c2cn(CCCCCCN3C[C@H](O)[C@@H](O)[C@H](O)[C@H]3CO)nn2)cc1 [Compound 17, (2R,3R,4R,5S)-2-(hydroxymethyl)-1-(6-(4-(4-propylphenyl)-1H-1,2,3-triazol-1-yl)hexyl)piperidine-3,4,5-triol]	
68 ± 4	65 ± 2	CCc1ccc(-c2cn(CCCCCCN3C[C@H](O)[C@@H](O)[C@H](O)[C@H]3CO)nn2)cc1 [Compound 16, (2R,3R,4R,5S)-1-(6-(4-(4-ethylphenyl)-1H-1,2,3-triazol-1-yl)hexyl)-2-(hydroxymethyl)piperidine-3,4,5-triol]	
82 ± 5	529 ± 41	CCCCCCc1ccc(-c2cn(CCCCN3C[C@H](O)[C@@H](O)[C@H](O)[C@H]3CO)nn2)cc1 [Compound 13, (2R,3R,4R,5S)-1-(4-(4-(4-hexylphenyl)-1H-1,2,3-triazol-1-yl)butyl)-2-(hydroxymethyl)piperidine-3,4,5-triol]	
105 ± 9	770 ± 92	CCCCc1ccc(-c2cn(CCCCN3C[C@H](O)[C@@H](O)[C@H](O)[C@H]3CO)nn2)cc1 [Compound 12, (2R,3R,4R,5S)-1-(4-(4-(4-butylphenyl)-1H-1,2,3-triazol-1-yl)butyl)-2-(hydroxymethyl)piperidine-3,4,5-triol]	
244 ± 32	> 1000	CCc1ccc(-c2cn(CCCCN3C[C@H](O)[C@@H](O)[C@H](O)[C@H]3CO)nn2)cc1 [Compound 10, (2R,3R,4R,5S)-1-(4-(4-(4-ethylphenyl)-1H-1,2,3-triazol-1-yl)butyl)-2-(hydroxymethyl)piperidine-3,4,5-triol]	
16 ± 2	77 ± 4	CCCCCCc1ccc(-c2cn(CCCCCCN3C[C@H](O)[C@@H](O)[C@H](O)[C@H]3CO)nn2)cc1 [Compound 20, (2R,3R,4R,5S)-1-(6-(4-(4-hexylphenyl)-1H-1,2,3-triazol-1-yl)hexyl)-2-(hydroxymethyl)piperidine-3,4,5-triol]	viability at 24 h, 50 µM [6]: 20.9%; cytotoxicity ([7]; HL60, 50 µM): exhibited cytotoxicity; also recorded: cytotoxic; cell survival rate [7]: 6.66%
130 ± 9	130 ± 5	OC[C@@H]1[C@@H](O)[C@H](O)[C@@H](O)CN1CCCCCCn1cc(-c2ccccc2)nn1 [Compound 14, (2R,3R,4R,5S)-2-(hydroxymethyl)-1-(6-(4-phenyl-1H-1,2,3-triazol-1-yl)hexyl)piperidine-3,4,5-triol]	
